Laboratory results as given in patent US4179464A, “Preparation of N-(phosphonoacetyl)-L-aspartic acid” (priority 1978, dated 1979).
Entries after “also recorded” stand apart in the source; their conditions may differ. Counter-ions that a name gives are not always drawn. Like-named read-outs stand apart in the source and are kept apart here. Values belong to the molecule of their own block, whether it stands above or below them.

Assays:
[1] = system: tumor systems; assay: preliminary in vivo screening of PALA esters; settings: relative to tetrasodium PALA
[2] = hygroscopic character; assay type: physicochemical; settings: for physical state after moisture uptake: atmospheric moisture, eventually
Experimental: (§1) The following determinations were made as to the physical properties of the disodium PALA. Except for the test for stability, these tests were carried out on material free of solvent contamination.
Hygroscopic Character. Tetrasodium PALA absorbs atmospheric moisture 1.5 times faster than the disodium salt.

[3] = stability on drying in vacuo at 140° (NMR, TLC); assay type: physicochemical; settings: dried in vacuo at 140° for 15.5 hours, sample containing acetic acid and ethanol
Experimental: as §1
Stability. A sample of disodium PALA was dried in vacuo at 140° for 15.5 hours. […] This is believed to be an ester produced at the elevated temperature in the presence of ethanol and acetic acid.

[4] = assay type: physicochemical
Experimental: as §1
pH. A 2% solution of the disodium salt in water has a pH of 4.08.

[5] = solubility; assay type: physicochemical
Experimental: as §1

[6] = system: B16 tumor; settings: NCI screening program, data through Aug. 31, 1976; cited from earlier work
[7] = system: aspartate transcarbamylase; settings: Stark et al., J. Biol. Chem., 246, 6599 (1971); cited from earlier work
[8] = system: Lewis Lung tumor; settings: NCI screening program, data through Aug. 31, 1976; cited from earlier work
[9] = system: P388 tumor; settings: NCI screening program, data through Aug. 31, 1976; cited from earlier work
[10] = system: pyrimidine nucleotide biosynthesis; settings: Stark et al. (1974); cited from earlier work
[11] = system: expected tumor systems; assay: activity of tetrasodium PALA samples in tumor systems; assay type: in vivo
Description: In spite of the above mentioned problems involving the consistency of elemental analyses and the low hydrogen values, the tetrasodium PALA samples were characterized as highly pure materials by nmr, optical rotation (comparison with literature value), and thin layer chromatography (homogeneous in four different solvent systems).

- hygroscopicity (in words) [2]: markedly hygroscopic
SMILES: O=C(CP(=O)(O)O)N[C@@H](CC(=O)OCc1ccccc1)C(=O)OCc1ccccc1 [X]
- fold less active than tetrasodium PALA [1]: approximately 100 fold

SMILES: O=C([O-])C[C@H](NC(=O)CP(=O)(O)O)C(=O)[O-].[Na+].[Na+] [disodium PALA, L-Aspartic acid, N-(phosphonoacetyl)-, disodium salt]
- structural integrity by NMR [3]: retained its structural integrity
- change in thin layer chromatography ([3]; believed to be an ester): formation of a new, faster-running spot
- pH of aqueous solution ([4]; 2% solution in water): 4.08
- physical state after moisture uptake [2]: eventually take up enough moisture so as to lose their solid characteristics
- hygroscopicity (in words) ([2]; disodium salt): less hygroscopic than tetrasodium PALA
- hygroscopicity (in words) ([2]; listed as Disodium PALA, disodium salt): less hygroscopic than the tetrasodium compound
- water solubility (in words) ([5]; water): extremely water soluble
- solubility ([5]; water, solvent-free material): > 950 mg/mL

SMILES: O=C(O)C[C@H](NC(=O)CP(=O)(O)O)C(=O)O [PALA, N-(phosphonoacetyl)-L-aspartic acid]
- activity against B16 tumor system [6]: active
- transition state analogue inhibitor of aspartate transcarbamylase [7]: transition state analogue inhibitor of aspartate transcarbamylase
- activity against Lewis Lung tumor system [8]: active
- activity against P388 tumor system [9]: active
- inhibition of pyrimidine nucleotide biosynthesis in vitro [10]: inhibition of pyrimidine nucleotide biosynthesis in vitro
- water solubility (in words) ([5]; water): high water solubility

- hygroscopicity (in words) [2]: apparently less hygroscopic than (X)
SMILES: O=C(CP(=O)(O)O)N[C@@H](CC(=O)OCc1ccccc1)C(=O)OCc1ccccc1 [XI, L-Aspartic acid, N-(phosphonoacetyl)-, dibenzyl ester, complexed with cyclohexylamine]
- fold less active than tetrasodium PALA [1]: approximately 100 fold

SMILES: O=C(O)C[C@H](NC(=O)CP(=O)(O)O)C(=O)O [calcium salt of PALA]
- water solubility (in words) ([5]; water): dissolves in water permitting ready formulation
- rate of dissolution in water ([5]; water, results tentative): dissolves relatively slowly

SMILES: O=C(O)C[C@H](NC(=O)CP(=O)(O)O)C(=O)O [tetrasodium PALA, L-Aspartic acid, N-(phosphonoacetyl)-, tetrasodium salt]
- activity in the expected tumor systems [11]: active in the expected tumor systems
- pH when formulated in water ([4]; formulated in water): 9.2
- physiological acceptability of alkalinity in water ([4]; formulated in water, pH 9.2): alkaline (pH 9.2) to a degree generally considered harmful physiologically
- hygroscopicity (in words) [2]: hygroscopic; also recorded: high degree of hygroscopicity
- physical state after moisture uptake [2]: eventually take up enough moisture so as to lose their solid characteristics
- rate of absorption of atmospheric moisture relative to the disodium salt ([2]; tetrasodium versus disodium salt, solvent-free material): 1.5 times faster

- hygroscopicity (in words) ([2]; listed as dibenzyl PALA): hygroscopic
- water solubility (in words) [5]: insoluble in water
SMILES: O=C(CP(=O)(O)O)N[C@@H](CC(=O)OCc1ccccc1)C(=O)OCc1ccccc1 [IV, L-Aspartic acid, N-(phosphonoacetyl)-, dibenzyl ester]

SMILES: O=C(O)C[C@H](NC(=O)CP(=O)(O)O)C(=O)O [N,N'-dibenzylethylenediamine salt]
- solubility in ethanol ([5]; ethanol, preliminary): soluble in ethanol

SMILES: O=C(O)C[C@H](NC(=O)CP(=O)(O)O)C(=O)O [cyclohexylamine salt]
- hygroscopicity (in words) [2]: completely nonhygroscopic
